Measurements reported in patent publication US12377112B2, “Methods of treating neurocognitive disorders, chronic pain and reducing inflammation” (priority 2019, dated 2025).

Tests used:
[1] = system: healthy subjects; assay: Phase 1 study in healthy subjects: adverse events and acute effects; format: in vivo, human
Method: A Phase 1 randomized, double-blind, placebo-controlled study to evaluate the effect of psilocybin on cognitive and emotional processing as compared to placebo in healthy volunteers was conducted. The study investigated the short-term (Day 7) and long-term (Day 28) effects of moderate (10 mg) and high doses (25 mg) of psilocybin on key domains of cognition, such as episodic memory, attention, working and spatial memory, social cognition and elements of executive function, including cognitive flexibility.
90 healthy subjects were studied. Approximately 50% of the subjects were psilocybin-naïve. For subjects with prior psilocybin experience, the last exposure was at least 1 year prior to the signing of the Informed Consent Form (ICF). Approximately 50% of the subjects were female. Subjects were stratified by sex and age (18-35 years old; >35 years old).
Each subject was assigned 1 treatment bottle containing 5 capsules packaged in a double-blind fashion, depending on the randomized treatment arm, the bottle contained one of the following: • a. Psilocybin 10 mg: 2×5-mg oral psilocybin capsules plus 3×placebo capsules • b. Psilocybin 25 mg: 5×5-mg oral psilocybin capsules • c. Placebo: 5×placebo capsules
Each 5-mg oral psilocybin capsule comprised 5 mg crystalline psilocybin in the form of Polymorph A, 12.5 mg of SMCC 50, 79.5 mg of SMCC 90, 1 mg sodium starch glycolate, 1 mg colloidal silicon dioxide, and 1 mg sodium stearyl fumarate
Adverse events: Throughout the course of the study, all AEs were monitored and recorded. Each AE was classified according to the following criteria: • i. […] Moderate: The AE produces some impairment of functioning, but is not hazardous to the subject's health. • iii. Severe: The AE produces significant impairment of functioning or incapacitation and is a definite hazard to the subject's health.
Selected Adverse Events of included: • (a) Euphoric mood • (b) Dissociative disorder • (c) Hallucination • (d) Psychotic disorder • (e) Cognitive disorder • (f) Disturbance in attention • (g) Altered mood • (h) Impairment of psychomotor skills • (i) Inappropriate affect • (j) Overdose • (k) Intentional product misuse • (l) Illusion
For example, drug-induced hepatitis that resolved without evidence of hepatic failure would not be considered life threatening even though drug-induced hepatitis can be fatal. • (c) Inpatient hospitalization or prolongation of existing hospitalization. • (d) Persistent or significant disability/incapacity. • (e) Congenital anomaly/birth defect in the offspring of a subject who received psilocybin. • (f) Other: Important medical events that may not result in death, be life-threatening, or require hospitalization, may be considered an SAE when, based upon appropriate medical judgment, they may jeopardize the subject and may require medical or surgical intervention to prevent one of the outcomes listed in this definition. […] Visits:
Visit 3 (V3): Drug Administration (Day 0): The subject was asked to eat a light breakfast at least two hours prior to coming to the clinic for study drug administration. On Day 0 (V3), the subject underwent the SSTS, had vital signs obtained, medications reviewed, AEs recorded and eligibility reviewed prior to being randomized to study drug. The study drug was administered to up to six subjects simultaneously in individual beds separated by a curtain. The subject was invited to put on eyeshades and headphones, lie down and listen to calming music for the rest of the session (six hours). The subject was supported 1:1 with a chaperone and supervised by the study psychiatrist and lead therapist.
The effects of psilocybin usually started about 20 to 30 min after administration, becoming most intense in the first 90 to 120 min and gradually subsiding in about 5 to 6 hours. […]

[2] = system: healthy subjects; assay: Phase 1 study: Five Dimension Altered States of Consciousness questionnaire (5D-ASC); format: in vivo, human; settings: Post-Treatment Day 0; Psilocybin 10 mg
From the text: In some embodiments, the Five Dimension Altered States of Consciousness questionnaire (5D-ASC) is utilized to evaluate the safety and/or efficacy of psilocybin. […] The 5 dimensions include oceanic boundlessness, anxious ego dissolution, visionary restructuralization, auditory alterations and reduction of vigilance.

Structure (SMILES): CN(C)CCc1c[nH]c2cccc(OP(=O)(O)O)c12 [Psilocybin, psilocybin]
- Illusion, worst severity Moderate: Events ([1]; 10 mg): 16
- Serious adverse events or adverse events that led to withdrawal ([1]; 10 mg and 25 mg, 12-week study): no serious adverse events
- Selected TEAE (any), subjects N (%) ([1]; Psilocybin 10 mg (N = 30)): 27 (90.0) N (%)
- Selected TEAE: Affect lability, Events ([1]; Psilocybin 10 mg (N = 30)): 5
- Selected TEAE: Affect lability, subjects N (%) ([1]; Psilocybin 10 mg (N = 30)): 5 (16.7) N (%)
- Selected TEAE: Change in sustained attention, Events ([1]; Psilocybin 10 mg (N = 30)): 2
- Selected TEAE: Change in sustained attention, subjects N (%) ([1]; Psilocybin 10 mg (N = 30)): 2 (6.7) N (%)
- Selected TEAE: Depressed mood, Events ([1]; Psilocybin 10 mg (N = 30)): 1
- Selected TEAE: Depressed mood, subjects N (%) ([1]; Psilocybin 10 mg (N = 30)): 1 (3.3) N (%)
- Selected TEAE: Dissociative identity disorder, Events ([1]; Psilocybin 10 mg (N = 30)): 2
- Selected TEAE: Dissociative identity disorder, subjects N (%) ([1]; Psilocybin 10 mg (N = 30)): 1 (3.3) N (%)
- Selected TEAE: Euphoric mood, Events ([1]; Psilocybin 10 mg (N = 30)): 7
- Selected TEAE: Euphoric mood, subjects N (%) ([1]; Psilocybin 10 mg (N = 30)): 7 (23.3) N (%)
- Selected TEAE: Hallucination, Events ([1]; Psilocybin 10 mg (N = 30)): 3
- Selected TEAE: Hallucination, auditory, Events ([1]; Psilocybin 10 mg (N = 30)): 4
- Selected TEAE: Hallucination, auditory, subjects N (%) ([1]; Psilocybin 10 mg (N = 30)): 4 (13.3) N (%)
- Selected TEAE: Hallucination, gustatory, Events ([1]; Psilocybin 10 mg (N = 30)): 1
- Selected TEAE: Hallucination, gustatory, subjects N (%) ([1]; Psilocybin 10 mg (N = 30)): 1 (3.3) N (%)
- Selected TEAE: Hallucination, olfactory, Events ([1]; Psilocybin 10 mg (N = 30)): 1
- Selected TEAE: Hallucination, olfactory, subjects N (%) ([1]; Psilocybin 10 mg (N = 30)): 1 (3.3) N (%)
- Selected TEAE: Hallucination, subjects N (%) ([1]; Psilocybin 10 mg (N = 30)): 3 (10.0) N (%)
- Selected TEAE: Hallucination, tactile, Events ([1]; Psilocybin 10 mg (N = 30)): 2
- Selected TEAE: Hallucination, tactile, subjects N (%) ([1]; Psilocybin 10 mg (N = 30)): 2 (6.7) N (%)
- Selected TEAE: Hallucination, visual, Events ([1]; Psilocybin 10 mg (N = 30)): 20
- Selected TEAE: Hallucination, visual, subjects N (%) ([1]; Psilocybin 10 mg (N = 30)): 18 (60.0) N (%)
- Selected TEAE: Illusion, Events ([1]; Psilocybin 10 mg (N = 30)): 25
- Selected TEAE: Illusion, subjects N (%) ([1]; Psilocybin 10 mg (N = 30)): 19 (63.3) N (%)
- Selected TEAE: Memory impairment, Events ([1]; Psilocybin 10 mg (N = 30)): 1
- Selected TEAE: Memory impairment, subjects N (%) ([1]; Psilocybin 10 mg (N = 30)): 1 (3.3) N (%)
- Selected TEAE: Mood altered, Events ([1]; Psilocybin 10 mg (N = 30)): 23
- Selected TEAE: Mood altered, subjects N (%) ([1]; Psilocybin 10 mg (N = 30)): 13 (43.3) N (%)
- Selected TEAE: Nervous system disorders (SOC), Events ([1]; Psilocybin 10 mg (N = 30)): 2
- Selected TEAE: Nervous system disorders (SOC), subjects N (%) ([1]; Psilocybin 10 mg (N = 30)): 2 (6.7) N (%)
- Selected TEAE: Psychiatric disorders (SOC), Events ([1]; Psilocybin 10 mg (N = 30)): 104
- Selected TEAE: Psychiatric disorders (SOC), subjects N (%) ([1]; Psilocybin 10 mg (N = 30)): 27 (90.0) N (%)
- Selected TEAE: Psychomotor skills impaired, Events ([1]; Psilocybin 10 mg (N = 30)): 1
- Selected TEAE: Psychomotor skills impaired, subjects N (%) ([1]; Psilocybin 10 mg (N = 30)): 1(3.3) N (%)
- Selected TEAE: Somatic hallucination, Events ([1]; Psilocybin 10 mg (N = 30)): 8
- Selected TEAE: Somatic hallucination, subjects N (%) ([1]; Psilocybin 10 mg (N = 30)): 8 (26.7) N (%)
- Selected TEAE: Substance-induced psychotic disorder, Events ([1]; Psilocybin 10 mg (N = 30)): 0
- Selected TEAE: Substance-induced psychotic disorder, subjects N (%) ([1]; Psilocybin 10 mg (N = 30)): 0 N (%)
- Selected TEAE (any), subjects N (%) ([1]; Psilocybin 25 mg (N = 30)): 27 (90.0) N (%)
- Selected TEAE: Affect lability, Events ([1]; Psilocybin 25 mg (N = 30)): 3
- Selected TEAE: Affect lability, subjects N (%) ([1]; Psilocybin 25 mg (N = 30)): 3 (10.0) N (%)
- Selected TEAE: Change in sustained attention, Events ([1]; Psilocybin 25 mg (N = 30)): 0
- Selected TEAE: Change in sustained attention, subjects N (%) ([1]; Psilocybin 25 mg (N = 30)): 0 N (%)
- Selected TEAE: Depressed mood, Events ([1]; Psilocybin 25 mg (N = 30)): 2
- Selected TEAE: Depressed mood, subjects N (%) ([1]; Psilocybin 25 mg (N = 30)): 2 (6.7) N (%)
- Selected TEAE: Dissociative identity disorder, Events ([1]; Psilocybin 25 mg (N = 30)): 2
- Selected TEAE: Dissociative identity disorder, subjects N (%) ([1]; Psilocybin 25 mg (N = 30)): 2 (6.7) N (%)
- Selected TEAE: Euphoric mood, Events ([1]; Psilocybin 25 mg (N = 30)): 8
- Selected TEAE: Euphoric mood, subjects N (%) ([1]; Psilocybin 25 mg (N = 30)): 7 (23.3) N (%)
- Selected TEAE: Hallucination, Events ([1]; Psilocybin 25 mg (N = 30)): 2
- Selected TEAE: Hallucination, auditory, Events ([1]; Psilocybin 25 mg (N = 30)): 4
- Selected TEAE: Hallucination, auditory, subjects N (%) ([1]; Psilocybin 25 mg (N = 30)): 4 (13.3) N (%)
- Selected TEAE: Hallucination, gustatory, Events ([1]; Psilocybin 25 mg (N = 30)): 0
- Selected TEAE: Hallucination, gustatory, subjects N (%) ([1]; Psilocybin 25 mg (N = 30)): 0 N (%)
- Selected TEAE: Hallucination, olfactory, Events ([1]; Psilocybin 25 mg (N = 30)): 1
- Selected TEAE: Hallucination, olfactory, subjects N (%) ([1]; Psilocybin 25 mg (N = 30)): 1 (3.3) N (%)
- Selected TEAE: Hallucination, subjects N (%) ([1]; Psilocybin 25 mg (N = 30)): 2 (6.7) N (%)
- Selected TEAE: Hallucination, tactile, Events ([1]; Psilocybin 25 mg (N = 30)): 4
- Selected TEAE: Hallucination, tactile, subjects N (%) ([1]; Psilocybin 25 mg (N = 30)): 4 (13.3) N (%)
- Selected TEAE: Hallucination, visual, Events ([1]; Psilocybin 25 mg (N = 30)): 22
- Selected TEAE: Hallucination, visual, subjects N (%) ([1]; Psilocybin 25 mg (N = 30)): 21 (70.0) N (%)
- Selected TEAE: Illusion, Events ([1]; Psilocybin 25 mg (N = 30)): 26
- Selected TEAE: Illusion, subjects N (%) ([1]; Psilocybin 25 mg (N = 30)): 18 (60.0) N (%)
- Selected TEAE: Memory impairment, Events ([1]; Psilocybin 25 mg (N = 30)): 0
- Selected TEAE: Memory impairment, subjects N (%) ([1]; Psilocybin 25 mg (N = 30)): 0 N (%)
- Selected TEAE: Mood altered, Events ([1]; Psilocybin 25 mg (N = 30)): 25
- Selected TEAE: Mood altered, subjects N (%) ([1]; Psilocybin 25 mg (N = 30)): 15 (50.0) N (%)
- Selected TEAE: Nervous system disorders (SOC), Events ([1]; Psilocybin 25 mg (N = 30)): 0
- Selected TEAE: Nervous system disorders (SOC), subjects N (%) ([1]; Psilocybin 25 mg (N = 30)): 0 N (%)
- Selected TEAE: Psychiatric disorders (SOC), Events ([1]; Psilocybin 25 mg (N = 30)): 106
- Selected TEAE: Psychiatric disorders (SOC), subjects N (%) ([1]; Psilocybin 25 mg (N = 30)): 27 (90.0) N (%)
- Selected TEAE: Psychomotor skills impaired, Events ([1]; Psilocybin 25 mg (N = 30)): 0
- Selected TEAE: Psychomotor skills impaired, subjects N (%) ([1]; Psilocybin 25 mg (N = 30)): 0 N (%)
- Selected TEAE: Somatic hallucination, Events ([1]; Psilocybin 25 mg (N = 30)): 6
- Selected TEAE: Somatic hallucination, subjects N (%) ([1]; Psilocybin 25 mg (N = 30)): 5 (16.7) N (%)
- Selected TEAE: Substance-induced psychotic disorder, Events ([1]; Psilocybin 25 mg (N = 30)): 1
- Selected TEAE: Substance-induced psychotic disorder, subjects N (%) ([1]; Psilocybin 25 mg (N = 30)): 1 (3.3) N (%)
- 5D-ASC Complex imagery, LS mean [2]: 53.0
